This is an account of results in BindingDB's records for doi:10.1021/jm00057a008 (American Cyanamid, 1993).

The target of the assay is Platelet-activating factor receptor (Oryctolagus cuniculus). As to the kind of experiment: Inhibition of PAF-induced platelet aggregation in rabbit platelet rich plasma.
Molecule `CCCCCCCCCCCCCCOc1ccc(C(=O)NCCc2cccc[n+]2C)cc1` [1-Methyl-2-[2-(4-tetradecyloxy-benzoylamino)-ethyl]-pyridinium; iodide] returned an IC50 of more than 10 µM.
As for `CCCCCCCCCCCCCCOc1ccc(C(=O)NCc2cccc[n+]2C)cc1` [1-Methyl-2-[(4-tetradecyloxy-benzoylamino)-methyl]-pyridinium; iodide], the figure is more than 10 µM.
As for `CCCCCCCCCCCCCCOc1ccc(CC(=O)NCCc2cccc[n+]2C)cc1` [1-Methyl-2-{2-[2-(4-tetradecyloxy-phenyl)-acetylamino]-ethyl}-pyridinium; iodide], the figure is 15 µM; as for `CCCCCCCCCCCCCCOc1ccc(CC(=O)NCc2cccc[n+]2C)cc1` [1-Methyl-2-{[2-(4-tetradecyloxy-phenyl)-acetylamino]-methyl}-pyridinium; iodide], more than 10 µM.
As for `CCCCCCCCCCCCCCOc1ccc(CNC(=O)c2cc[n+](C)cc2)cc1` [1-Methyl-4-(4-tetradecyloxy-benzylcarbamoyl)-pyridinium; iodide], the figure is 60 µM; as for `CCCCCCCCCCCCCCOc1ccccc1CN(Cc1cccc[n+]1C)C(C)=O` [2-{[Acetyl-(2-tetradecyloxy-benzyl)-amino]-methyl}-1-methyl-pyridinium; iodide], 43 µM.
Molecule `CCCCCCCOc1ccc(C(=O)N(Cc2cccc[n+]2C)C(C)=O)cc1OCCCCCCC` [2-{[Acetyl-(3,4-bis-heptyloxy-benzoyl)-amino]-methyl}-1-methyl-pyridinium; iodide] showed an IC50 of 3.7 µM.
As for `CCCCCCCCCCCCCCOc1ccc(C(=O)N(Cc2cccc[n+]2C)C(C)=O)cc1OCCCCCCCCCCCCCC` [2-{[Acetyl-(3,4-bis-tetradecyloxy-benzoyl)-amino]-methyl}-1-methyl-pyridinium; iodide], the 50% inhibitory concentration (IC50) was more than 10 µM.
As for `CCCCCCCCCCCCCCOc1ccc(C(=O)N(Cc2cccc[n+]2CC)C(C)=O)cc1OC` [2-{[Acetyl-(3-methoxy-4-tetradecyloxy-benzoyl)-amino]-methyl}-1-ethyl-pyridinium; iodide], the figure is 0.16 µM; as for `CCCCCCCCCCCCCCOc1ccc(C(=O)N(Cc2cccc[n+]2C)C(C)=O)cc1OC` [2-{[Acetyl-(3-methoxy-4-tetradecyloxy-benzoyl)-amino]-methyl}-1-methyl-pyridinium; iodide], 0.064 µM; as for `CCCCCCCCCCOc1ccc(C(=O)N(Cc2cccc[n+]2C)C(C)=O)cc1C(C)(C)C` [2-{[Acetyl-(3-tert-butyl-4-decyloxy-benzoyl)-amino]-methyl}-1-methyl-pyridinium; iodide], 10 µM.
Consider `CCCCCCCCCCCCCCCCCCNC(=O)Oc1ccc(C(=O)N(Cc2cccc[n+]2C)C(C)=O)cc1C(C)(C)C` [2-{[Acetyl-(3-tert-butyl-4-octadecylcarbamoyloxy-benzoyl)-amino]-methyl}-1-methyl-pyridinium; iodide], for which the IC50 was more than 10 µM.
For `CCCCCCCCCCCCCCOc1ccc(C(=O)N(Cc2cccc[n+]2C)C(C)=O)cc1C(C)(C)C` [2-{[Acetyl-(3-tert-butyl-4-tetradecyloxy-benzoyl)-amino]-methyl}-1-methyl-pyridinium; iodide], the IC50 came out at 0.022 µM.
As for `CCCCCCCCCCCCCCOc1cc(C(=O)N(Cc2cccc[n+]2C)C(C)=O)ccc1OC` [2-{[Acetyl-(4-methoxy-3-tetradecyloxy-benzoyl)-amino]-methyl}-1-methyl-pyridinium; iodide], the figure is 160 µM; as for `CCCCCCCCCCCCCCOc1ccc(C(=O)N(Cc2cccc[n+]2Cc2ccccc2)C(C)=O)cc1` [2-{[Acetyl-(4-tetradecyloxy-benzoyl)-amino]-methyl}-1-benzyl-pyridinium; bromide], 330 µM.
In turn, `CCCCCCCCCCCCCCOc1ccc(C(=O)N(Cc2cccc[n+]2C)C(C)=O)cc1` [2-{[Acetyl-(4-tetradecyloxy-benzoyl)-amino]-methyl}-1-methyl-pyridinium; iodide] returned an IC50 of 0.95 µM.
In the case of `CCCCCCCCCCCCCCOc1ccc(CN(Cc2cccc[n+]2CC)C(C)=O)cc1` [2-{[Acetyl-(4-tetradecyloxy-benzyl)-amino]-methyl}-1-ethyl-pyridinium; iodide] it was 8.3 µM.
With `CCCCCCCCCCCCCCOc1ccc(COC(=O)N(Cc2cccc[n+]2C)C(C)=O)cc1` [2-{[Acetyl-(4-tetradecyloxy-benzyloxycarbonyl)-amino]-methyl}-1-methyl-pyridinium; iodide], the IC50 was more than 10 µM.
In the case of `CCCCCCCCCCCCCCOc1ccc(C(=O)NC(=O)c2ccc[n+](CCC)c2)cc1OC` [3-(3-Methoxy-4-tetradecyloxy-benzoylaminocarbonyl)-1-propyl-pyridinium; iodide] it was more than 10 µM; in that of `CCCCCCCCCCCCCCOc1ccc(C(=O)N(Cc2ccc[n+](C)c2)C(C)=O)cc1C(C)(C)C` [3-{[Acetyl-(3-tert-butyl-4-tetradecyloxy-benzoyl)-amino]-methyl}-1-methyl-pyridinium; iodide], 20 µM; in that of `CCCCCCCCCCCCCCOc1ccc(C(=O)N(Cc2ccc[n+](C)c2)C(C)=O)cc1` [3-{[Acetyl-(4-tetradecyloxy-benzoyl)-amino]-methyl}-1-methyl-pyridinium; iodide], 6.8 µM.
Take `CCCCCCCCCCCCCCOc1ccc(CN(Cc2ccc[n+](C)c2)C(C)=O)cc1` [3-{[Acetyl-(4-tetradecyloxy-benzyl)-amino]-methyl}-1-methyl-pyridinium; iodide]: the IC50 was more than 10 µM.
In the case of `CCCCCCCCCCCCCCOc1ccc(CN(Cc2cc[n+](C)cc2)C(C)=O)cc1` [4-{[Acetyl-(4-tetradecyloxy-benzyl)-amino]-methyl}-1-methyl-pyridinium; iodide] it was 1 µM; in that of `CCCCCCCCCCCCCCOc1ccc(C(=O)N(Cc2cccc[n+]2[O-])C(C)=O)cc1C(C)(C)C` [N-Acetyl-3-tert-butyl-N-(1-oxy-pyridin-2-ylmethyl)-4-tetradecyloxy-benzamide], more than 10 µM.
In the case of `CCCCCCCCCCCCCCOc1ccc(CNC(=O)c2cccc[n+]2CC)cc1` [Trifluoro-methanesulfonate1-ethyl-2-(4-tetradecyloxy-benzylcarbamoyl)-pyridinium;] it was more than 10 µM; in that of `CCCCCCCCCCCCCCOc1ccc(COC(=O)NCc2cccc[n+]2CC)cc1` [Trifluoro-methanesulfonate1-ethyl-2-[(4-tetradecyloxy-benzyloxycarbonylamino)-methyl]-pyridinium;], more than 10 µM.
In the case of `CCCCCCCCCCCCCCOc1ccc(C(=O)N(Cc2cccc[n+]2CCC)C(C)=O)cc1OC` [Trifluoro-methanesulfonate2-{[acetyl-(3-methoxy-4-tetradecyloxy-benzoyl)-amino]-methyl}-1-propyl-pyridinium;] it was 0.1 µM.

The IC50 is the concentration needed to halve the response being measured. Read a high IC50 as weaker potency.
